Values of other authors as cited in patent publication US8470863B2, “Derivatives and analogs of chroman as functionally selective ALPHA2C adrenoreceptor agonists” (Merck Sharp & Dohme, Corp., priority 2007, dated 2013).

Tested on: Coloboma mice
Details: mice mutated to exhibit spontaneous hyperactivity; Bruno et al. 2006

COC(=O)[C@@H]1[C@H]2C[C@H]3c4[nH]c5ccccc5c4CCN3C[C@@H]2CC[C@@H]1O [yohimbine]
Effect on hyperactivity of Coloboma mice: ameliorated hyperactivity
